Reference: patent publication EP4768487A1, “FUSED LACTAM RING COMPOUND AND USE THEREOF” (Chengdu Zenitar Biomedical Technology Co., Ltd., priority 2023, dated 2025)

Legend:
[1] = target: T1, PARP1 (Homo sapiens, UniProt P09874); assay: PARP1 enzyme assay (histone-coated plate, chemiluminescence); type: biochemical; details: PARP1 0.02 nM, DNA 0.8 nM, NAD+ 3.5 µM; read-out: PARP-1 IC50
T1 construct: purchased BPS 80501
Description: 1.1.1. Buffer preparation: PBST: 1× PBS, 0.05% Tween-20; blocking buffer: 1× PBS, 0.05% Tween-20, 5% BSA; reaction buffer: 50 mM Tris-HCl (pH 7.5), 0.005% Tween-20, 0.01% BSA.
1.1.2. Coating: A 50 ng/mL Histone coating solution was prepared with 1× PBS and then transferred to a 384-well reaction plate at 25 µL/well. The plate was coated at 4 °C overnight.
1.1.3. Washing: After the coating was completed, the coating solution was discarded, and the plate was washed with the PBST solution. The method was as follows: PBST was transferred to the 384-well reaction plate at 50 µL/well, and the plate was left to stand for 5 min. The washing solution was then discarded, and the plate was refilled. The washing step was repeated 3 times. Finally, the reaction plate was patted dry and left for the next step of blocking.
1.1.4. Blocking: The blocking buffer was transferred to the 384-well reaction plate at 50 µL/well, and the plate was left to stand for 1 h.
Washing: After the blocking was completed, the blocking buffer was discarded, and the plate was washed 3 times with the PBST solution according to the method in step 2. Finally, the reaction plate was patted dry.
1.1.5. A 1000-fold solution of a compound was prepared and then transferred at 1 µL/well to a 96-well plate containing 199 µL of the reaction buffer. The mixture was well mixed, and then the well mixed compound solution was transferred to the 384-well reaction plate at 5 µL/well. 1.1.6. A 25/10-fold PARP1-DNA solution was prepared with the reaction buffer and then transferred to the 384-well reaction plate at 10 µL/well. For the negative control wells, 10 µL
of the DNA solution was transferred. The final concentrations of PARP1 and DNA were 0.02 nM and 0.8 nM, respectively.
1.1.9. Washing: After the reaction was completed, the reaction solution was discarded, and the plate was washed 3 times with the PBST solution according to the method in step 2. Finally, the reaction plate was patted dry.
1.1.10. A primary antibody (anti-Poly/Mono-ADP Ribose Rabbit mAb) was diluted 2000-fold with the blocking buffer and then added at 20 µL/well.
1.1.11. Washing: The primary antibody was discarded, and the plate was washed 3 times with the PBST solution according to the method in step 2. Finally, the reaction plate was patted dry.
1.1.12. A secondary antibody (anti-rabbit IgG, HRP-linked Antibody) was diluted 2000-fold with the blocking buffer and then added at 20 µL/well.
1.1.13. Washing: The secondary antibody was discarded, and the plate was washed 3 times with the PBST solution according to the method in step 2. Finally, the reaction plate was patted dry.
1.1.14. Color development: Femto-ECL Substrate A and Femto-ECL Substrate B were mixed at a ratio of 1:1, and the mixture was transferred to the 384-well reaction plate at 25 µL/well. 1.1.15. Reading: The chemiluminescence values (RLU) were measured using Envision.

[2] = system: BRCA-mutated MDA-MB-436 cells; assay: Anti-proliferative activity against cells (CCK8): MDA-MB-436; type: cell-based; details: Homo sapiens, 72 h + 96 h culture
[3] = system: BRCA wild-type DLD-1 cells; assay: Anti-proliferative activity against cells (CCK8): DLD-1; type: cell-based; details: Homo sapiens, 72 h + 96 h culture
Description: BRCA wild-type DLD-1 cells were cultured in an RPMI-1640 medium containing 10% fetal bovine serum, 100 U/mL penicillin, and 100 µg/mL streptomycin, and incubated in an incubator with 5% saturated CO2 at 37 °C. When the cells grew to 80% confluence, they were collected, centrifuged at 300 g for 10 min, and then plated onto a 96-well plate at 1000 cells/well. After 24 h, different final concentrations (0 µM, 1 µM, and 10 µM) of PARPi were added, and the cells were cultured for another 72 h. The cells were subjected to medium exchange treatment (re-supplemented with PARPi at the same final concentrations) and then cultured for another 96 h. The 96-well plate was taken out.

T1 sequence (P09874 whole entry): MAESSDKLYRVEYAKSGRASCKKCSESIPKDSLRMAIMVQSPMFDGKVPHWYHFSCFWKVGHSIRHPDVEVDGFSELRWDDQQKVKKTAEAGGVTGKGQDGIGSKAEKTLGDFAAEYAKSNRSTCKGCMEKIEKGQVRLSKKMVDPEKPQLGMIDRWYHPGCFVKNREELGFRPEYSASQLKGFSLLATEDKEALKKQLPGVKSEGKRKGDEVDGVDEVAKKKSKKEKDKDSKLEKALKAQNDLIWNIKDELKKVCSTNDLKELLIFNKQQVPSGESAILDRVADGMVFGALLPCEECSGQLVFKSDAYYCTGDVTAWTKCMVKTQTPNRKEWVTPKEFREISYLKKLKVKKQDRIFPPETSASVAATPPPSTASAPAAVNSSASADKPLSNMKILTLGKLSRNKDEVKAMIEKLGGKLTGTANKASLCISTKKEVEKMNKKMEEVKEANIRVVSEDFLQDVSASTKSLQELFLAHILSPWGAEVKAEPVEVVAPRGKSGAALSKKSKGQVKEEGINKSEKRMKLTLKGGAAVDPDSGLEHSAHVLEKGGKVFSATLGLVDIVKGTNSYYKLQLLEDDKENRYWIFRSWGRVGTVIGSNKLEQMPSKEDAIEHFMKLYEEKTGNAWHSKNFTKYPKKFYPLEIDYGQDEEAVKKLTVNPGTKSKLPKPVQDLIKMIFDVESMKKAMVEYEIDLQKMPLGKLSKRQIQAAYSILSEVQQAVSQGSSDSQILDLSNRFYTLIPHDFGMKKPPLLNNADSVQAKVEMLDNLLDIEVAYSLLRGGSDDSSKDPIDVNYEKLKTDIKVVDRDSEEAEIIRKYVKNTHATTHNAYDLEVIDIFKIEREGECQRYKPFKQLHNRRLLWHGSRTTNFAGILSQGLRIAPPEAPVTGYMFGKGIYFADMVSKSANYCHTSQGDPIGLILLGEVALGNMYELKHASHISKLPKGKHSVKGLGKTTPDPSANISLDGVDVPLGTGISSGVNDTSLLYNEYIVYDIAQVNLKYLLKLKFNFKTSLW

Row | IC50 [2] [nM] | SMILES | IC50 [1] [nM] | IC50 [3] [nM]
1 | 6.5 | [2H]C([2H])([C@H]1CCc2nc(C)c(=O)[nH]c2C1)N1CCN(c2ccc(C(=O)NC3CC3)nc2F)CC1 [Example 88, (S)-N-Cyclopropyl-6-fluoro-5-(4-((2-methyl-3-oxo-3,4,5,6,7,8-hexahydroquinoxalin-6-yl)methyl-d2)piperazin-1-yl)picolinamide] | ≤ 50 | > 1000
2 | – | CNC(=O)c1ccc(N2CCN(CC3Cc4[nH]c(=O)c(Br)cc4CO3)CC2)c(F)n1 (centres unmarked) [Example 40, 5-(4-((3-Bromo-2-oxo-1,5,7,8-tetrahydro-2H-pyrano[4,3-b]pyridin-7-yl)methyl)piperazin-1-yl)-6-fluoro-N-methylpicolinamide] | ≤ 50 | > 1000
3 | 300 | CCc1cc2c([nH]c1=O)CC(CN1CCN(c3ccc(C(=O)NCC(F)F)nc3F)CC1)OC2 (centres unmarked) [Example 49, N-(2,2-Difluoroethyl)-5-(4-((3-ethyl-2-oxo-1,5,7,8-tetrahydro-2H-pyrano[4,3-b]pyridin-7-yl)methyl)piperazin-1-yl)-6-fluoropicolinamide] | ≤ 50 | > 1000
4 | 250 | CCc1nc2c([nH]c1=O)C[C@@H](CN1CCC(c3ccc(C(=O)NC)nc3F)CC1)CC2 [Example 54, (S)-5-(1-((2-Ethyl-3-oxo-3,4,5,6,7,8-hexahydroquinoxalin-6-yl)methyl)piperidin-4-yl)-6-fluor o-N-methylpicolinamide] | 50 to 500 | > 1000
5 | 10.5 | CNC(=O)c1ccc(N2CCN(C[C@H]3Cc4[nH]c(=O)c(C)cc4CO3)CC2)c(Cl)n1 [Example 95, (R)-6-chloro-N-methyl-5-(4-((3-methyl-2-oxo-1,5,7,8-tetrahydro-2H-pyrano[4,3-b]pyridin-7-yl)methyl)piperazin-1-yl)picolinamide] | ≤ 50 | > 1000
6 | 300 | CCc1cc2c([nH]c1=O)CC(CN1CCN(c3ccc(C(=O)NC)nc3)CC1)OC2 (centres unmarked) [Compound 1, 5-(4-((3-Ethyl-2-oxo-1,5,7,8-tetrahydro-2H-pyrano[4,3-b]pyridin-7-yl)methyl)piperazin-1-yl) -N-methylpicolinamide] | ≤ 50 | > 1000
7 | 4.5 | CCc1cc2c([nH]c1=O)C[C@H](CN1CCN(c3ccc(C(=O)NC)nc3F)CC1)OC2 [Example 66, (R)-5-(4-((3-ethyl-2-oxo-1,5,7,8-tetrahydro-2H-pyrano[4,3-b]pyridin-7-yl)methyl)piperazin-1-yl)-6-fluoro-N-methylpicolinamide] | – | > 1000
8 | – | CNC(=O)c1ccc(N2CCN(CC3COc4cc(Cl)c(=O)[nH]c4C3)CC2)c(F)n1 (centres unmarked) [Example 86, 5-(4-((7-Chloro-6-oxo-3,4,5,6-tetrahydro-2H-pyrano[3,2-b]pyridin-3-yl)methyl)piperazin-1-yl)-6-fluoro-N-methylpicolinamide] | 50 to 500 | > 1000
9 | 300 | CNC(=O)c1ccc(C2CCN(C[C@H]3CCc4nc(C)c(=O)[nH]c4C3)CC2)c(F)n1 [Example 80, (S)-6-Fluoro-N-methyl-5-(1-((2-methyl-3-oxo-3,4,5,6,7,8-hexahydroquinoxalin-6-yl)methyl)piperidin-4-yl)picolinamide] | – | > 1000
10 | – | CCc1nc2c([nH]c1=O)C[C@@H](CN1CCN(c3ccc(C(=O)NC)nc3F)CC1)CC2 [Example 48, (S)-5-(4-((2-Ethyl-3-oxo-3,4,5,6,7,8-hexahydroquinoxalin-6-yl)methyl)piperazin-1-yl)-6-fluor o-N-methylpicolinamide] | ≤ 50 | > 1000
11 | 130 | COC1CC(NC(=O)c2ccc(N3CCN(CC4Cc5[nH]c(=O)c(C)cc5CO4)CC3)c(F)n2)C1 (centres unmarked) [Example 79, 6-Fluoro-N-(3-methoxycyclobutyl)-5-(4-((3-methyl-2-oxo-1,5,7,8-tetrahydro-2H-pyrano[4,3-b]pyridin-7-yl)methyl)piperazin-1-yl)picolinamide] | – | > 1000
12 | – | CNC(=O)c1ccc(N2CCN(CC3Cc4[nH]c(=O)c(C5CC5)cc4CO3)CC2)c(F)n1 (centres unmarked) [Example 42, 5-(4-((3-Cyclopropyl-2-oxo-1,5,7,8-tetrahydro-2H-pyrano[4,3-b]pyridin-7-yl)methyl)piperazin-1-yl)-6-fluoro-N-methylpicolinamide] | 50 to 500 | > 1000
13 | – | CNC(=O)c1ccc2c(n1)COC[C@H]1CN(CC3Cc4[nH]c(=O)c(C)cc4CO3)CCN21 (stereo partly drawn) [Example 92, (4aR)-N-Methyl-3-((3-methyl-2-oxo-1,5,7,8-tetrahydro-2H-pyrano[4,3-b]pyridin-7-yl)methyl) -1,2,3,4,4a,5-hexahydro-7H-pyrazino[2,1-c]pyrido[3,2-e][1,4]oxazolidine-9-carboxamide] | ≤ 50 | > 1000
14 | – | CNC(=O)c1ccc(N2CCN(C[C@H]3CCc4nc(C5CC5)c(=O)[nH]c4C3)CC2)c(F)n1 [Example 57, (S)-5-(4-((2-Cyclopropyl-3-oxo-3,4,5,6,7,8-hexahydroquinoxaline-6-yl)methyl)piperazin-1-yl)-6-fluoro-N-methylpicolinamide] | ≤ 50 | > 1000
15 | 0.7 | CCc1cc2c([nH]c1=O)C[C@@H](CN1CCN(c3ccc(C(=O)NC)nc3F)CC1)OC2 [Example 65, (S)-5-(4-((3-Ethyl-2-oxo-1,5,7,8-tetrahydro-2H-pyrano[4,3-b]pyridin-7-yl)methyl)piperazin-1-yl)-6-fluoro-N-methylpicolinamide] | – | > 1000
16 | – | CNC(=O)c1ccc(N2CCN(CC3Cc4[nH]c(=O)c(SC)cc4CO3)CC2)c(F)n1 (centres unmarked) [Example 96, 6-Fluoro-N-methyl-5-(4-((3-(methylthio)-2-oxo-1,5,7,8-tetrahydro-2H-pyrano[4,3-b]pyridin-7-yl)methyl)piperazin-1-yl)picolinamide] | ≤ 50 | > 1000
17 | – | CNC(=O)c1ccc(N2CCN(C(C)[C@H]3CCc4nc(C)c(=O)[nH]c4C3)CC2)c(F)n1 (stereo partly drawn) [Example 71, (S)-6-Fluoro-N-methyl-5-(4-(1-(2-methyl-3-oxo-3,4,5,6,7,8-hexahydroquinoxalin-6-yl)ethyl)piperazin-1-yl)picolinamide] | ≤ 50 | > 1000
18 | – | CNC(=O)c1ccc(C2=CCN(C[C@H]3CCc4nc(C5CC5)c(=O)[nH]c4C3)CC2)c(F)n1 [Example 56, (S)-1'-((2-Cyclopropyl-3-oxo-3,4,5,6,7,8-hexahydroquinoxaline-6-yl)methyl)-2-fluoro-N-met hyl-1',2',3',6'-tetrahydro-[3,4'-bipyridine]-6-carboxamide] | ≤ 50 | > 1000

Row | SMILES | IC50 [2] [nM] | IC50 [1] [nM] | IC50 [3] [nM]
19 | CNC(=O)c1ccc(C2=CCN(CC3Cc4[nH]c(=O)c(C)cc4CO3)CC2)c(F)n1 (centres unmarked) [Example 50, 2-Fluoro-N-methyl-1'-((3-methyl-2-oxo-1,5,7,8-tetrahydro-2H-pyrano[4,3-b]pyridin-7-yl)methyl)-1',2',3',6'-tetrahydro-[3,4'-bipyridine]-6-carboxamide] | 350 | 50 to 500 | > 1000
20 | CNC(=O)c1ccc(C2=CCN(CC3Cc4[nH]c(=O)c(Cl)cc4CO3)CC2)c(F)n1 (centres unmarked) [Example 63, 1'-((3-Chloro-2-oxo-1,5,7,8-tetrahydro-2H-pyrano[4,3-b]pyridin-7-yl)methyl)-2-fluoro-N-met hyl-1',2',3',6'-tetrahydro-[3,4'-bipyridine]-6-carboxamide] | 430 | 50 to 500 | > 1000
